Reference: ChEMBL document CHEMBL1201862, “PubChem BioAssay data set” (2004)
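Step 1: Grow cells in 96-well plates. Step 2: Expose to compound for 48 hours at 5 concentrations. Step 3: Interpolate endpoints linearly; if unreached, use highest concentration. GI50 is the concentration that inhibits growth by half.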 Active and inactive are the calls of the source. Cut-off read from the data, not from the text of the source: active = GI50 up to about 1.1 µM and inactive = higher.

Key:
Test in all cases: growth of human tumour cells (NCI), 48 h
[1] = tested on: UACC-62
[2] = tested on: SF-539
[3] = tested on: CAKI-1
[4] = tested on: A498
[5] = tested on: TK-10
[6] = tested on: HT-29
[7] = tested on: XF498
[8] = tested on: EKVX
[9] = tested on: CCRF-CEM
[10] = tested on: HOP-92
[11] = tested on: K562
[12] = tested on: Malme-3M
[13] = tested on: HL-60
[14] = tested on: DMS-273
[15] = tested on: SNB-75
[16] = tested on: UO-31
[17] = tested on: 786-0
[18] = tested on: KM-20L2
[19] = tested on: M14
[20] = tested on: IGROV-1
[21] = tested on: HOP-62
[22] = tested on: OVCAR-8
[23] = tested on: DMS-114
[24] = tested on: SK-MEL-5
[25] = tested on: SK-OV-3
[26] = tested on: SW-620
[27] = tested on: RPMI-8226
[28] = tested on: DLD-1
[29] = tested on: SF-295
[30] = tested on: A549
[31] = tested on: SF-268
[32] = tested on: MOLT-4
[33] = tested on: ACHN
[34] = tested on: LXFL 529
[35] = tested on: HCT-116
[36] = tested on: SR
[37] = tested on: RXF 393
[38] = tested on: NCI-H460
[39] = tested on: HOP-18
[40] = tested on: KM12
[41] = tested on: NCI-H23
[42] = tested on: HCC 2998
[43] = tested on: SK-MEL-2
[44] = tested on: LOX IMVI
[45] = tested on: M19-MEL
[46] = tested on: SN12C
[47] = tested on: HCT-15
[48] = tested on: COLO 205
[49] = tested on: SNB-78
[50] = tested on: SK-MEL-28
[51] = tested on: OVCAR-3
[52] = tested on: NCI-H226
[53] = tested on: OVCAR-5
[54] = tested on: U-251
[55] = tested on: UACC-257
[56] = tested on: OVCAR-4
[57] = tested on: MCF7
[58] = tested on: DU-145
[59] = tested on: MDA-MB-435
[60] = tested on: NCI/ADR-RES
[61] = tested on: NCI-H522
[62] = tested on: MDA-MB-231
[63] = tested on: PC-3
[64] = tested on: SNB-19
[65] = tested on: RXF 631
[66] = tested on: MDA-N
[67] = tested on: Hs-578T
[68] = tested on: T47D

COc1ccc(OC)c(/C(C)=N/NC(N)=S)c1
GI50 [1]: > 100000 nM (inactive) | GI50 [2]: > 100000 nM (inactive) | GI50 [3]: > 100000 nM (inactive) | GI50 [4]: > 100000 nM (inactive) | GI50 [5]: > 100000 nM (inactive) | GI50 [6]: > 100000 nM (inactive) | GI50 [7]: > 100000 nM (inactive) | GI50 [8]: > 100000 nM (inactive) | GI50 [9]: > 100000 nM (inactive) | GI50 [10]: > 100000 nM (inactive) | GI50 [11]: > 100000 nM (inactive) | GI50 [12]: > 100000 nM (inactive) | GI50 [13]: > 100000 nM (inactive) | GI50 [14]: > 100000 nM (inactive) | GI50 [15]: > 100000 nM (inactive) | GI50 [16]: > 100000 nM (inactive) | GI50 [17]: > 100000 nM (inactive) | GI50 [18]: > 100000 nM (inactive) | GI50 [19]: > 100000 nM (inactive) | GI50 [20]: > 100000 nM (inactive) | GI50 [21]: > 100000 nM (inactive) | GI50 [22]: > 100000 nM (inactive) | GI50 [23]: > 100000 nM (inactive) | GI50 [24]: > 100000 nM (inactive) | GI50 [25]: > 100000 nM (inactive) | GI50 [26]: > 100000 nM (inactive) | GI50 [27]: > 100000 nM (inactive) | GI50 [28]: > 100000 nM (inactive) | GI50 [29]: > 100000 nM (inactive) | GI50 [30]: > 100000 nM (inactive) | GI50 [31]: > 100000 nM (inactive) | GI50 [32]: 74800 nM (inactive) | GI50 [33]: > 100000 nM (inactive) | GI50 [34]: > 100000 nM (inactive) | GI50 [35]: > 100000 nM (inactive) | GI50 [36]: > 100000 nM (inactive) | GI50 [37]: > 100000 nM (inactive) | GI50 [38]: > 100000 nM (inactive) | GI50 [39]: > 100000 nM (inactive) | GI50 [40]: > 100000 nM (inactive) | GI50 [41]: > 100000 nM (inactive) | GI50 [42]: > 100000 nM (inactive) | GI50 [43]: > 100000 nM (inactive) | GI50 [44]: > 100000 nM (inactive) | GI50 [45]: > 100000 nM (inactive) | GI50 [46]: > 100000 nM (inactive) | GI50 [47]: > 100000 nM | GI50 [48]: > 100000 nM (inactive) | GI50 [49]: > 100000 nM (inactive) | GI50 [50]: > 100000 nM (inactive) | GI50 [51]: > 100000 nM (inactive) | GI50 [52]: > 100000 nM (inactive) | GI50 [53]: > 100000 nM (inactive) | GI50 [54]: > 100000 nM (inactive) | GI50 [55]: > 100000 nM (inactive) | GI50 [56]: > 100000 nM (inactive)

CCCCCCC(=O)OC[n+]1ccc2c(C)c3[nH]c4ccc(OC)cc4c3c(C)c2c1
GI50 [1]: 953 nM (active) | GI50 [2]: 299 nM (active) | GI50 [3]: 865 nM (active) | GI50 [4]: 863 nM (active) | GI50 [5]: 2050 nM (inactive) | GI50 [6]: 66.4 nM (active) | GI50 [57]: 214 nM (active) | GI50 [58]: 550 nM (active) | GI50 [59]: 454 nM (active) | GI50 [60]: 200 nM (active) | GI50 [8]: 800 nM (active) | GI50 [9]: 70.6 nM (active) | GI50 [10]: 1180 nM (inactive) | GI50 [11]: 61.1 nM (active) | GI50 [12]: 1010 nM (active) | GI50 [61]: 303 nM (active) | GI50 [13]: 245 nM (active) | GI50 [14]: 29 nM (active) | GI50 [15]: 1130 nM (inactive) | GI50 [16]: 830 nM (active) | GI50 [17]: 70.8 nM (active) | GI50 [18]: 2420 nM (inactive) | GI50 [62]: 269 nM (active) | GI50 [19]: 703 nM (active) | GI50 [63]: 246 nM (active) | GI50 [20]: 268 nM (active) | GI50 [21]: 105 nM (active) | GI50 [22]: 75.2 nM (active) | GI50 [23]: 522 nM (active) | GI50 [24]: 1160 nM (inactive) | GI50 [64]: 308 nM (active) | GI50 [25]: 585 nM (active) | GI50 [26]: 62.8 nM (active) | GI50 [27]: 54.8 nM (active) | GI50 [28]: 92 nM (active) | GI50 [29]: 277 nM (active) | GI50 [65]: 455 nM (active) | GI50 [30]: 238 nM (active) | GI50 [31]: 154 nM (active) | GI50 [32]: 37.8 nM (active) | GI50 [33]: 65.6 nM (active) | GI50 [66]: 324 nM (active) | GI50 [34]: 133 nM (active) | GI50 [67]: 1320 nM (inactive) | GI50 [35]: 54 nM (active) | GI50 [36]: 48.6 nM (active) | GI50 [37]: 247 nM (active) | GI50 [38]: 38.2 nM (active) | GI50 [40]: 186 nM (active) | GI50 [41]: 329 nM (active) | GI50 [42]: 421 nM (active) | GI50 [43]: 1330 nM (inactive) | GI50 [44]: 217 nM (active) | GI50 [45]: 953 nM (active) | GI50 [46]: 62.5 nM (active) | GI50 [47]: 117 nM | GI50 [48]: 207 nM (active) | GI50 [49]: 1060 nM (active) | GI50 [68]: 883 nM (active) | GI50 [50]: 1290 nM (inactive) | GI50 [51]: 1570 nM (inactive) | GI50 [52]: 476 nM (active) | GI50 [53]: 1050 nM (active) | GI50 [54]: 282 nM (active) | GI50 [55]: 1010 nM (active) | GI50 [56]: 679 nM (active)
